The series in a line: solubility study in acetic acid and ionic liquid solvent. It is filed as physicochemical. The following applies: ionic liquid solvent compared with acetic acid; FIG. 4. From the text: Two samplers were used for different purposes. A custom Titanium sampler was fabricated by Parr Instrument with a 2 μm Titanium filter included to separate solid and liquid phase at operating temperature for studying reaction kinetics. A custom Titanium sampler, larger in size but with no filter attached, was used for a solubility study. For the solubility study, the solvent and solute were loaded in the reactor and heated to the desired temperature, and maintained for a certain time to ensure an equilibrium was established. Afterwards, sufficient time was allowed for the solid to settle before a sample was taken. Solubility was compared to another study that tested terephthalic acid solubility in acetic acid.

The structures appear in SMILES notation.

With `O=Cc1ccc(C(=O)O)cc1` [4-CBA, 4-carboxybenzaldehyde], the solubility entry is reported as “greater solubility in ionic liquid than in acetic acid”. Take `O=C(O)c1ccc(C(=O)O)cc1` [terephthalic acid, 1,4-benzenedicarboxylic acid]: the solubility entry was “greater solubility in ionic liquid than in acetic acid”.

Source of the values: patent US9233905B2, “Oxidation and crystallization process for aromatic carboxylic acid production” (UOP LLC, priority 2012, dated 2016).
